Patent publication US20260250519A1, “Copper Containing Compounds and Compositions for Antimicrobial Paint and Coating” (ARXADA, LLC, priority 2022, published 2026)

Columns and labels:
[1] = Compatibility of copper compounds in flat wall paint, visual assessment of dry film for grits; format: physicochemical; conditions: 600 ppm Cu in acrylic flat wall paint; dry film inspected for grits
Protocol: The compatibilities of copper compounds in paint were evaluated via visual assessment of dry film appearance of a flat wall paint (50% PVC, 35% Solid Vol, 45 g/L VOC, Table 1).

[2] = system: Escherichia coli (ATCC 8739); test: Modified JIS Z2801, increased inoculum, Quat-containing matte wall paint; format: cell-based; conditions: Quat 5200 ppm, Cu 0 ppm in matte wall paint
Protocol: (§1) The antibacterial efficacies of copper-containing composition in dry paint film were evaluated using a modified JIS Z2801 method (Antimicrobial Product-Test for Antimicrobial Activity and Efficacy: 2000) by reducing contact time from 24 hour to 2 hour, including Pseudomonas aeruginosa as an additional bacteria and increasing inoculum strength to 5.0 to 10.0×10^7 cfm/mL. […] The paints were brushed onto the sterilized plastic filter paper. Each side of the filter paper was painted twice and the resulting coated paper was dried at ambient condition for 3 days. The dried coatings were then leached against 10 L water for 24 hours (4 water changes for the first 8 hour). Each of three (3) bacterial inoculum (0.4 mL): Escherichia coli (ATCC 8739), Staphylococcus aureus (ATCC 6538), Pseudomonas aeruginosa (ATCC 15442) was used to inoculate the dry film (40 mm×40 mm) of test paint to achieve 5.0 to 10.0×10^7 cfm/mL of inoculum concentration per each bacteria on dry surface of each test paint. The test paints were incubated at 35±1° C. and 90% RH for 2 hour. The degrees of bacterial contamination were determined relative to blank paint via viable cell count of bacteria by agar plate culture method.

[3] = system: Pseudomonas aeruginosa (ATCC 15442); test: as above; format: cell-based; conditions: Quat 5200 ppm, Cu 0 ppm in matte wall paint
Protocol: as §1

[4] = system: Staphylococcus aureus (ATCC 6538); test: as above; format: cell-based; conditions: Quat 5200 ppm, Cu 0 ppm in matte wall paint
Protocol: as §1

[5] = system: Pseudomonas aeruginosa (ATCC 15442); test: Interim EPA method with dry and chemical abrasion, Quat-containing matte wall paint; format: cell-based; conditions: Quat 5200 ppm, Cu 0 ppm; for 2 hr Contact Time % ↓ / 2 hr Contact Time Log10 ↓: relative to uncoated substrate
Protocol: (§2) The antibacterial efficacies of copper-containing composition in dry paint film were evaluated using an interim EPA method (Interim Method for Evaluating the Efficacy of Antimicrobial Surface Coatings: Oct. 2, 2020). […] The paints were drawn-down onto the sterilized steel substrate (1 inch by 1 inch of AISI type 304 stainless steel). The resulting coated substrate was dried at ambient condition for at least 24 hours. Some of the dried coated substrates were further subject to dry and chemical abrasion for 1 week residual efficacy claim. As for dry abrasion, the coated substrate was exposed to 10 cycles of dry abrasion by a Scotch Brite Non-Scratch Scrub Sponge using a BYK Gardner-Scrub machine, each of which comprises 16 single passes. As for chemical abrasion, the scrub sponge was soaked in sodium hypochlorite (2000 ppm NaOCl) solution and EPA-registered Quat-containing Nugen™ MB^5N-256 (256× dilution) disinfectant prior to the abrasion. The coated substrate was exposed to 10 cycles of chemical abrasion by the soaked scrub sponge, each of which comprises 8 single passes. After rinsing and drying to remove the residual NaOCl and Quat, each of two (2) bacterial inoculum ([…]): Staphylococcus aureus (ATCC 6538) and Pseudomonas aeruginosa (ATCC 15442) was used to inoculate the dry film of test paint to achieve 10^4 to 10^5 cfm/carrier of bacteria on dry surface of each test paint. The test paints were incubated at 22° C. and 30-40% RH for 2 hours. The degrees of bacterial contamination were determined via viable cell count for antibacterial efficacy relative to the uncoated substrate.

[6] = system: Staphylococcus aureus (ATCC 6538); test: as above; format: cell-based; conditions: Quat 5200 ppm, Cu 0 ppm; for 2 hr Contact Time % ↓ / 2 hr Contact Time Log10 ↓: relative to uncoated substrate
Protocol: as §2

[7] = cited from earlier work

**Q.** Which “Compatibilities of Copper Compounds in Paint” value [1] does the source give for `O=S(=O)([O-])[O-].[Cu+2]` [CuSO4, copper sulfate, reference compound] here?
**A.** Incompatible (many grits)

**Q.** What does the source list for “alkyl (50% C14, 10% C16, 40% C12) dimethyl benzyl ammonium chloride [Quat]”?
**A.** 2 hr Contact Time Avg [2]: 1.4E+02; 2 hr Contact Time Log10 [2]: 2.16; 2 hr Contact Time Avg [3]: 2.9E+05; 2 hr Contact Time Log10 [3]: 5.46; 2 hr Contact Time Avg [4]: <1.5E+02; 2 hr Contact Time Log10 [4]: <2.19; 2 hr Contact Time Avg ([5]; Dry Abraded): 1.0E+2; 2 hr Contact Time Log10 ([5]; Dry Abraded): 2.01; 2 hr Contact Time % ↓ ([5]; Dry Abraded): 99.6285%; 2 hr Contact Time Log10 ↓ ([5]; Dry Abraded): 2.43; 2 hr Contact Time Avg ([5]; NaOCl Abraded): 1.4E+0; 2 hr Contact Time Log10 ([5]; NaOCl Abraded): 0.16; 2 hr Contact Time % ↓ ([5]; NaOCl Abraded): 99.9994%; 2 hr Contact Time Log10 ↓ ([5]; NaOCl Abraded): 4.28; 2 hr Contact Time Avg ([5]; Quat Abraded): 1.1E+2; 2 hr Contact Time Log10 ([5]; Quat Abraded): 2.06; 2 hr Contact Time % ↓ ([5]; Quat Abraded): 99.5831%; 2 hr Contact Time Log10 ↓ ([5]; Quat Abraded): 2.38; 2 hr Contact Time Avg ([5]; Unexposed): 1.7E+3; 2 hr Contact Time Log10 ([5]; Unexposed): 3.23; 2 hr Contact Time % ↓ ([5]; Unexposed): 93.8340%; 2 hr Contact Time Log10 ↓ ([5]; Unexposed): 1.21; 2 hr Contact Time Avg ([6]; Dry Abraded): 1.0E+0; 2 hr Contact Time Log10 ([6]; Dry Abraded): 0.00; 2 hr Contact Time % ↓ ([6]; Dry Abraded): 99.9990%; 2 hr Contact Time Log10 ↓ ([6]; Dry Abraded): 5.00; 2 hr Contact Time Avg ([6]; NaOCl Abraded): 1.0E+0; 2 hr Contact Time Log10 ([6]; NaOCl Abraded): 0.00; 2 hr Contact Time % ↓ ([6]; NaOCl Abraded): 99.9990%; 2 hr Contact Time Log10 ↓ ([6]; NaOCl Abraded): 5.00; 2 hr Contact Time Avg ([6]; Unexposed): 1.0E+0; 2 hr Contact Time Log10 ([6]; Unexposed): 0.00; 2 hr Contact Time % ↓ ([6]; Unexposed): 99.9990%; 2 hr Contact Time Log10 ↓ ([6]; Unexposed): 5.00

**Q.** For `On1ccccc1=S.On1ccccc1=S.[Cu]` [copper pyrithione], which solubility [7] is on record?
**A.** 0.03 µg/mL
